Experimental findings from patent US11352391B2, “Compositions for inducing urinary voiding and defecation” (Dignify Therapeutics, LLC, priority 2017, dated 2022) are described below.

Like-named read-outs stand apart in the source and are kept apart here. Where a SMILES comes first, the peptide text is derived from it. Where no end group is shown, it is not given here.

Data set [1] is described as follows: Saline solubility of heptapeptides. In kind it is physicochemical. The protocol: Heptapeptides A-K shown below in Table 1 (SEQ ID NOs: 1-11) were synthesized according to standard Fmoc-mediated solid-phase techniques and purified under typical C18 reverse-phase conditions.
Compounds D-K were considered to be insoluble in saline (<1 mg/mL).

Data set [2] has as its target T1, human NK2 Receptor (hNK2R) (Homo sapiens, UniProt P21452).
T1 sequence (P21452 1-398): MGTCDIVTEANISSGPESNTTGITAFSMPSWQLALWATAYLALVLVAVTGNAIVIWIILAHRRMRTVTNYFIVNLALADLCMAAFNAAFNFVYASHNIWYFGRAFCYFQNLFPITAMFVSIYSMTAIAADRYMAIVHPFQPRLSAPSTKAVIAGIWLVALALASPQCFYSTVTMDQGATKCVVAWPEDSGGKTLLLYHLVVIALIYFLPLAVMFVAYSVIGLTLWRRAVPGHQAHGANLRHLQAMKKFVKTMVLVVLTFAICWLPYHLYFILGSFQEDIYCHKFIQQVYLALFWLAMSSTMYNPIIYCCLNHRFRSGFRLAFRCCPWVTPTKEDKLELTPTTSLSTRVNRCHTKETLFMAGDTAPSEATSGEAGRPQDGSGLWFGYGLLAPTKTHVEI
The data set is described as follows: [125I]-NKA radioligand competition binding to human recombinant NK2Rs (CHO-hNK2 membranes). The conditions noted are these: for hNK2 selectivity ratio: ratio of Kis hNK1R/hNK2R. The protocol:
(§1) After removal of the supernatant the cell pellet was washed and collected by re-suspension in PBS and centrifugation.
(§2) Frozen pellets were thawed and homogenized in 10 volumes (w/v) of membrane preparation buffer (50 mM HEPES pH 7.4, 1 mM EDTA, 50 μg/mL bacitracin and protease inhibitors) using a Polytron Ultraturrax (twice for 15 s per cycle). […] Protein concentration was determined using BioRad Protein Assay (Milan, Italy) with a BSA standard curve.
(In general: Loss of bound radioactivity is the signal in a displacement assay; it reports binding, not function.)

The target in data set [3] is human NK1 Receptor (hNK1R) (Homo sapiens, UniProt P25103). The data set is described as follows: [3H]-septide radioligand competition binding to human recombinant NK1Rs (CHO-hNK1 membranes). The protocol:
as §1, §2

For data set [4], the target named is T2, recombinant hNK2R expressed in CHO cells (Homo sapiens, UniProt P21452).
T2 sequence (P21452 1-398): T1 sequence (P21452 1-398)
The data set is described as follows: Intracellular calcium mobilization (FLIPR) in CHO-hNK2 cells. In kind it is cell-based. The following applies: for hNK2 selectivity ratio: ratio of EC50s hNK1R/hNK2R. The protocol: (§3) CHO-hNK1 and CHO-hNK2 cells were seeded into black walled clear-bottom 384-well plates) at a density of 10,000 and 15,000 cells per well in 50 μL culture media, respectively, and grown overnight at 37° C. in a humidified CO2-incubator. Cells were washed in washing buffer using the EMBLA 384 instrument, leaving 20 μL of buffer per well after the final aspiration. Cells were then incubated at 37° C. with the cytoplasmic Ca2+ indicator Fluo-4 AM (final concentration 1 μM) in assay buffer (20 mM HEPES, 145 mM NaCl, 5 mM KCl, 5.5 mM glucose, 1 mM MgCl2 and 2 mM CaCl2, pH 7.4, 0.05% Pluronic F-127 and 0.1% BSA) containing 2.5 mM probenecid for […] (cell loading). Cells were then washed 3 times in washing buffer (20 mM HEPES, 145 mM NaCl, 5 mM KCl, 5.5 mM glucose, 1 mM MgCl2 and 2 mM CaCl2, pH 7.4 and 2.5 mM probenecid) using the EMBLA 384 instrument, leaving 30 μL of buffer in each well after the last wash. Loaded cell plates were transferred to the FLIPR machine and calcium responses were monitored as described below. A dual read-out FLIPR protocol was used, allowing for characterization of both agonist and antagonist profiles. For quality control, in each compound plate the signal was monitored by evaluating the responses to the reference standards (NKA and Substance P).
(§4) Concentration response curves of compounds were run in duplicate on two different occasions from the same stock solutions. Test solutions were prepared from 10 mM stock solutions in DMSO and 1 μL of each solution was stamped into V-bottom assay plates containing 49 μL assay buffer. The final concentration of DMSO was 0.5% in each well.
On the technique in general: Calcium assays in cells follow changes in intracellular calcium, usually with a dye or a luminescent sensor.

Data set [5] concerns the target recombinant hNK1R expressed in CHO cells (Homo sapiens, UniProt P25103). The data set is described as follows: Intracellular calcium mobilization (FLIPR) in CHO-hNK1 cells. In kind it is cell-based. As for the experimental part: as §3, §4
Data set [6] is described as follows: Pharmacokinetics in rat plasma after cassette IV bolus dosing. The conditions noted are these: Sprague-Dawley, in vivo. As for the experimental part:
The concentrations of compounds (SEQ ID NOS: 1-11) were measured in rat plasma after intravenous (IV) bolus dosing to determine pharmacokinetic profiles of individual compounds.
Animal preparation: In vivo studies were performed in anesthetized adult Sprague Dawley rats. Rats were anesthetized with urethane (1.2-1.4 g/kg subcutaneous injection). Surgical procedures were then performed with the addition of isoflurane anesthesia (0.05-1.5% in 02) as needed. A venous cannula was inserted into the jugular vein for intravenous (IV) administration of compounds.
In vivo dosing and plasma sampling: Compounds were divided into two groups (soluble and insoluble). Each group was dosed as a cassette in which four compounds (100 μg/kg each compound) were combined into a single IV bolus injection to anesthetized adult Sprague-Dawley rats. Soluble compounds were dissolved in saline. Insoluble compounds were dissolved in a 10% ethanol/saline solution. Rats were cassette dosed based on weight using 0.1 mg/mL solutions of individual compounds. Blood samples (700 μL) were collected using a carotid artery cannula into EDTA tubes containing ascorbic acid (final concentration 1%), and plasma was isolated.
Bioanalytical assay: A reversed-phase HPLC with Turbo Ion Spray MS/MS detection method was developed for bioanalysis. Mass spec transition and settings were individually optimized for each compound and then compounds were cassetted for HPLC method development and optimization. [^13C9; ^15N] [Lys5,MeLeu9,Nle10]-NKA(4-10) was used as an internal standard (IS). Analyte-to-IS peak area ratios for individual compounds were used to create linear calibration curves (1-20 ng/mL) using 1/×2 weighted least-squares regression analysis for evaluation of method linearity, precision and accuracy. For plasma concentration measurements, plasma samples were spiked with IS, processed by extraction, and analyzed using LC-MS/MS. Positive (M+H)+ ions for individual compounds and IS were monitored in MRM mode.

Setting [7] is: calcium mobilization, CHO-hNK2 cells, read-out: hNK2 EC50.
Setting [8] is: calcium mobilization, CHO-hNK1 cells, read-out: hNK1 EC50.
Where [9] appears, read: displacement of 0.1 nM [125I]-NKA, CHO-hNK2 membranes, read-out: hNK2 binding Ki.
Setting [10] is: displacement of 5.0 nM [3H]-septide, CHO-hNK1 membranes, read-out: hNK1 binding Ki.

Sequence of human NK1 Receptor (hNK1R) (P25103 whole entry): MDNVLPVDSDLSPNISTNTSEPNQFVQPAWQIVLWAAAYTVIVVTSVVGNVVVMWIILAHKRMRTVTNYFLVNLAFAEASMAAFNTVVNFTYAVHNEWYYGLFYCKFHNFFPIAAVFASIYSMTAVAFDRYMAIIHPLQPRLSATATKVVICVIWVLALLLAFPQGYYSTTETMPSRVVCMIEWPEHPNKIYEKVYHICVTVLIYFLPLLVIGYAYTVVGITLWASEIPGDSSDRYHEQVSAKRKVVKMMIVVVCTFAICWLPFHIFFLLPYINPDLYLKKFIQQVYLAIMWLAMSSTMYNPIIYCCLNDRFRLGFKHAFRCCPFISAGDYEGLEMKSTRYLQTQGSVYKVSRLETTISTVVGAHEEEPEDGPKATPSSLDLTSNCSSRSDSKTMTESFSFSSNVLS
Sequence of recombinant hNK1R expressed in CHO cells (P25103 whole entry): as above

In the case of `CCCC[C@H](NC(=O)[C@H](CC(C)C)NC(=O)CNC(=O)[C@@H](NC(=O)[C@H](Cc1ccccc1)NC(=O)[C@H](CCCCN)NC(=O)[C@@H](N)CC(=O)O)C(C)C)C(N)=O` [F, Asp-Lys-Phe-Val-Gly-Leu-Nle-NH2], in data set [1], the solubility (usually the concentration that dissolves in the medium under given conditions) was below 1000 µg/mL. For the same molecule, the values for the Ki in data set [2] and in data set [3] were 2.75 nM and 224 nM, respectively. Further, the results for the hNK2 selectivity ratio in data set [2] and in data set [4] were 81.47 and 6, respectively. Further, the EC50 – broadly, the concentration needed to bring the measured effect to its halfway point – in data set [4] (setting [7]) is 0.38 nM; in data set [5] (setting [8]), 2.36 nM.

Molecule `CSCC[C@H](NC(=O)[C@H](CC(C)C)NC(=O)CCNC(=O)[C@@H](NC(=O)[C@H](Cc1ccccc1)NC(=O)[C@H](CCCNC(=N)N)NC(=O)[C@@H](N)CC(=O)O)C(C)C)C(N)=O` [I, Asp-Arg-Phe-Val-(β-Ala)-Leu-Met-NH2] (HELM PEPTIDE1{D.R.F.V.[bAla].L.M.[am]}$$$$V2.0; N-terminus assumed) yielded a solubility in data set [1] below 1000 µg/mL. The results for the Ki in data set [2] (setting [9]) and in data set [3] (setting [10]) were 0.88 nM and 95.5 nM, respectively. Moreover, the results for the hNK2 selectivity ratio in data set [2] and in data set [4] were 108.27 and 12, respectively. The results for the EC50 in data set [4] (setting [7]) and in data set [5] (setting [8]) were 0.15 nM and 1.83 nM, respectively.

`CCCC[C@H](NC(=O)[C@H](CC(C)C)NC(=O)CCNC(=O)[C@@H](NC(=O)[C@H](Cc1ccccc1)NC(=O)[C@H](CCCNC(=N)N)NC(=O)[C@@H](N)CC(=O)O)C(C)C)C(N)=O` [K, Asp-Arg-Phe-Val-(β-Ala)-Leu-Nle-NH2] (HELM PEPTIDE1{D.R.F.V.[bAla].L.[Nle].[am]}$$$$V2.0; N-terminus assumed): the solubility in data set [1] is below 1000 µg/mL. Besides, the results for the Ki in data set [2] (setting [9]) and in data set [3] (setting [10]) were 6.85 nM and 1200 nM, respectively. Further, the hNK2 selectivity ratio in data set [2] is given as 175.59; in data set [4] it was 25. Besides, the EC50 was 1.16 nM in data set [4] (setting [7]) and 29.5 nM in data set [5] (setting [8]). This molecule had a half-life in data set [6] (iv) of 3.3 to 4.7 min.

Molecule “DRFVGLM-NH2 [H, Asp-Arg-Phe-Val-Gly-Leu-Met-NH2]” registered a solubility in data set [1] below 1000 µg/mL. The Ki – broadly, the dissociation constant of the complex between target and ligand, obtained from inhibition or displacement – in data set [2] is 0.31 nM; in data set [3] it was 8.32 nM. Further, the results for the hNK2 selectivity ratio in data set [2] and in data set [4] were 27.10 and 0.8, respectively. Moreover, the EC50 in data set [4] (setting [7]) came out at 0.19 nM; in data set [5] (setting [8]) it was 0.16 nM.

Take `CSCC[C@H](NC(=O)[C@H](CC(C)C)N(C)C(=O)CNC(=O)[C@@H](NC(=O)[C@H](Cc1ccccc1)NC(=O)[C@H](CCCCN)NC(=O)[C@@H](N)CC(=O)O)C(C)C)C(N)=O` [A, Asp-Lys-Phe-Val-Gly-(NMe-Leu)-Met-NH2]: the solubility in data set [1] is above 20000 µg/mL. Further, the Ki in data set [2] came out at 0.2 nM; in data set [3], 50.1 nM. Further, the results for the hNK2 selectivity ratio in data set [2] and in data set [4] were 248.89 and 7, respectively. Besides, the values for the EC50 in data set [4] and in data set [5] were 0.14 nM and 0.95 nM, respectively. In data set [6] (100 ug/kg, cassette IV bolus 100 μg/kg, by 10 min post-dose, read-out: plasma concentration), the level at 10 min is below 1 ng/mL. The half-life in data set [6] (cassette IV bolus, 100 μg/kg each compound, read-out: plasma t1/2) fell in the range of 0.2 to 1.2 min.

In turn, `CSCC[C@H](NC(=O)[C@H](CC(C)C)N(C)C(=O)CNC(=O)[C@@H](NC(=O)[C@H](Cc1ccccc1)NC(=O)[C@H](CCCNC(=N)N)NC(=O)[C@@H](N)CC(=O)O)C(C)C)C(N)=O` [C, Asp-Arg-Phe-Val-Gly-(NMe-Leu)-Met-NH2] (HELM PEPTIDE1{D.R.F.V.G.[meL].M.[am]}$$$$V2.0; N-terminus assumed) showed a solubility in data set [1] above 20000 µg/mL. Moreover, the Ki stood at 0.12 nM in data set [2] (setting [9]) and 20.9 nM in data set [3] (setting [10]). Further, the hNK2 selectivity ratio in data set [2] amounted to 167.49; in data set [4], 2. Moreover, the EC50 in data set [4] (setting [7]) is 0.16 nM; in data set [5] (setting [8]), 0.3 nM.

Turning to `CSCC[C@H](NC(=O)[C@H](CC(C)C)NC(=O)CNC(=O)[C@@H](NC(=O)[C@H](Cc1ccccc1)NC(=O)[C@H](CCCCN)NC(=O)[C@@H](N)CC(=O)O)C(C)C)C(N)=O` [D, Asp-Lys-Phe-Val-Gly-Leu-Met-NH2], the solubility in data set [1] was below 1000 µg/mL. In addition, the EC50 in data set [4] (setting [7]) came to 0.09 nM; in data set [5] (setting [8]), 0.41 nM.

As to `CCCC[C@H](NC(=O)[C@H](CC(C)C)NC(=O)CNC(=O)[C@@H](NC(=O)[C@H](Cc1ccccc1)NC(=O)[C@H](CCCNC(=N)N)NC(=O)[C@@H](N)CC(=O)O)C(C)C)C(N)=O` [J, Asp-Arg-Phe-Val-Gly-Leu-Nle-NH2] (HELM PEPTIDE1{D.R.F.V.G.L.[Nle].[am]}$$$$V2.0; N-terminus assumed), the solubility in data set [1] was below 1000 µg/mL. For the same molecule, the Ki in data set [2] turned out to be 1.74 nM; in data set [3] it was 126 nM. Moreover, the results for the hNK2 selectivity ratio in data set [2] and in data set [4] were 72.53 and 9, respectively. In addition, the EC50 in data set [4] (setting [7]) came out at 0.2 nM; in data set [5] (setting [8]), 1.71 nM.
